Paper PMC8286840, “Identifying SARS-CoV-2 antiviral compounds by screening for small molecule inhibitors of Nsp3 papain-like protease” (Biochemical Journal, 2021)
Counter-ions that a name gives are not always drawn. Like-named read-outs stand apart in the source and are kept apart here.

Columns and labels:
[1] = biological target: T1, SARS-CoV-2 PLpro (nsp3 1564–1878) (Severe acute respiratory syndrome coronavirus 2, UniProt P0DTD1); test: biochemical; design: FRET-quenched peptide (Pro3) cleavage by PLpro, 10 min pre-incubation, slope over 20 min, normalised to no-compound control; settings: low concentration screen, read-out: % of control remaining
[2] = biological target: T1, SARS-CoV-2 PLpro (nsp3 1564–1878); test: biochemical; design: FRET-quenched peptide (Pro3) cleavage by PLpro, 10 min pre-incubation, slope over 20 min, normalised to no-compound control; settings: high concentration screen, read-out: % of control remaining

For `OC[C@H]1O[C@@H](Oc2cc(O)cc(/C=C/c3ccc(O[C@@H]4O[C@H](CO)[C@@H](O)[C@H](O)[C@H]4O)cc3O)c2)[C@H](O)[C@@H](O)[C@@H]1O` [Mulberroside A], the remaining activity at 1.25 µM ([1]; Well no.=6340) was 93% and the remaining activity at 3.75 µM ([2]; Well no.=6340) was 90.9%.
`NCc1cc(O)no1` [Muscimol hydrobromide] gave a remaining activity at 1.25 µM ([1]; Well no.=556) of 95.9% and a remaining activity at 3.75 µM ([2]; Well no.=556) of 94.1%.
With `CCCCC(C#N)(Cn1cncn1)c1ccc(Cl)cc1` (stereo not drawn) [Myclobutanil] the remaining activity at 1.25 µM ([1]; Well no.=2001) was 105% and the remaining activity at 3.75 µM ([2]; Well no.=2001) was 102%.
With `COc1c(C)c2c(c(O)c1C/C=C(\C)CCC(=O)OCCN1CCOCC1)C(=O)OC2` [Mycophenolate mofetil] the remaining activity at 1.25 µM ([1]; Well no.=1923) was 103% and the remaining activity at 3.75 µM ([2]; Well no.=1923) was 103%.
In the case of `COc1c(C)c2c(c(O)c1C/C=C(\C)CCC(=O)O)C(=O)OC2` [Mycophenolic Acid], the remaining activity at 1.25 µM ([1]; Well no.=1553) is reported as 100%, the remaining activity at 1.25 µM ([1]; Well no.=3415) is reported as 96.4% and the remaining activity at 3.75 µM ([2]; Well no.=1553) is reported as 99.9%. It also gave a remaining activity at 3.75 µM ([2]; Well no.=3415) of 98.7%.
In the case of `CCOC(=O)c1cnn(-c2ccccc2)c1NC(=O)c1cc2nc(-c3ccco3)cc(C(F)(F)Cl)n2n1` [Mycro 3], the remaining activity at 1.25 µM ([1]; Well no.=7158) is reported as 96% and the remaining activity at 3.75 µM ([2]; Well no.=7158) is reported as 94.4%.
Compound `O=c1c(O)c(-c2cc(O)c(O)c(O)c2)oc2cc(O)cc(O)c12` [Myricetin] has a remaining activity at 1.25 µM ([1]; Well no.=838) of 101%, a remaining activity at 1.25 µM ([1]; Well no.=3324) of 103% and a remaining activity at 1.25 µM ([1]; Well no.=6244) of 96.2%. For the same compound, the remaining activity at 3.75 µM ([2]; Well no.=838) was 102%, the remaining activity at 3.75 µM ([2]; Well no.=3324) was 108% and the remaining activity at 3.75 µM ([2]; Well no.=6244) was 96.9%.
For `C[C@@H]1O[C@@H](Oc2c(-c3cc(O)c(O)c(O)c3)oc3cc(O)cc(O)c3c2=O)[C@H](O)[C@H](O)[C@H]1O` [Myricitrin], the remaining activity at 1.25 µM ([1]; Well no.=3343) was 95.5% and the remaining activity at 3.75 µM ([2]; Well no.=3343) was 97.9%.
`CCCCCCC(=O)CCCCCC/C=C/C[C@@H](O)[C@H](O)[C@@](N)(CO)C(=O)O` [Myriocin] gave a remaining activity at 1.25 µM ([1]; Well no.=3417) of 99.6% and a remaining activity at 3.75 µM ([2]; Well no.=3417) of 101%.
Work on `CCCCCCCCCCCCCC(=O)O` [Myristic acid] yielded a remaining activity at 1.25 µM ([1]; Well no.=6979) of 101% and a remaining activity at 3.75 µM ([2]; Well no.=6979) of 102%.
`C=CCc1cc(OC)c2c(c1)OCO2` [Myristicin] was tested, and the remaining activity at 1.25 µM ([1]; Well no.=3473) was 99% and the remaining activity at 3.75 µM ([2]; Well no.=3473) was 99.9%.
Compound `CN(C)c1nc2c(ncn2[C@@H]2O[C@H](CO)[C@@H](O)[C@H]2O)c(=O)[nH]1` [N2,N2-Dimethylguanosine] has a remaining activity at 1.25 µM ([1]; Well no.=6969) of 105%, a remaining activity at 1.25 µM ([1]; Well no.=7820) of 104% and a remaining activity at 3.75 µM ([2]; Well no.=6969) of 106%. The remaining activity at 3.75 µM ([2]; Well no.=7820) was 104%.
In the case of `CC(=O)Nc1ccn([C@@H]2O[C@H](COP(=O)(O)OP(=O)(O)OP(=O)(O)O)[C@@H](O)[C@H]2O)c(=O)n1` [N4-Acetylcytidine triphosphate (sodium)], the remaining activity at 1.25 µM ([1]; Well no.=7305) is reported as 109%, the remaining activity at 1.25 µM ([1]; Well no.=7964) is reported as 95.2% and the remaining activity at 3.75 µM ([2]; Well no.=7305) is reported as 109%. It also gave a remaining activity at 3.75 µM ([2]; Well no.=7964) of 92.1%.
`CN(C)c1ncnc2c1ncn2[C@@H]1O[C@H](CO)[C@@H](O)[C@H]1O` [N6,N6-Dimethyladenosine] showed a remaining activity at 1.25 µM ([1]; Well no.=7854) of 97.9% and a remaining activity at 3.75 µM ([2]; Well no.=7854) of 102%.
With `Nc1ccc(CCNc2ncnc3c2ncn3[C@@H]2O[C@H](CO)[C@@H](O)[C@H]2O)cc1` [N6-2-(4-Aminophenyl)ethyladenosine] the remaining activity at 1.25 µM ([1]; Well no.=162) was 94.9% and the remaining activity at 3.75 µM ([2]; Well no.=162) was 98%.
In the case of `OC[C@H]1O[C@@H](n2cnc3c(NCCc4ccccc4)ncnc32)[C@H](O)[C@@H]1O` [N6-2-Phenylethyladenosine], the remaining activity at 1.25 µM ([1]; Well no.=1453) is reported as 98.5% and the remaining activity at 3.75 µM ([2]; Well no.=1453) is reported as 98.6%.
`OC[C@H]1O[C@@H](n2cnc3c(NCCc4ccccc4)ncnc32)[C@H](O)[C@@H]1O` [N6-(2-Phenylethyl)adenosine] was tested, and the remaining activity at 1.25 µM ([1]; Well no.=8431) was 96.1% and the remaining activity at 3.75 µM ([2]; Well no.=8431) was 96.2%.
In the case of `OC[C@H]1O[C@@H](n2cnc3c(NCc4ccc(O)cc4)ncnc32)[C@H](O)[C@@H]1O` [N6-(4-Hydroxybenzyl)adenosine], the remaining activity at 1.25 µM ([1]; Well no.=7233) is reported as 106%, the remaining activity at 1.25 µM ([1]; Well no.=7954) is reported as 101% and the remaining activity at 3.75 µM ([2]; Well no.=7233) is reported as 101%. It also gave a remaining activity at 3.75 µM ([2]; Well no.=7954) of 97.1%.
Compound `OC[C@H]1O[C@@H](n2cnc3c(NC4CCCCC4)ncnc32)[C@H](O)[C@@H]1O` [N6-Cyclohexyladenosine] has a remaining activity at 1.25 µM ([1]; Well no.=435) of 98.1%, a remaining activity at 1.25 µM ([1]; Well no.=7053) of 96.4% and a remaining activity at 1.25 µM ([1]; Well no.=7952) of 92%. The remaining activity at 1.25 µM ([1]; Well no.=8083) was 106%, the remaining activity at 3.75 µM ([2]; Well no.=435) was 100% and the remaining activity at 3.75 µM ([2]; Well no.=7053) was 95.5%. For the same compound, the remaining activity at 3.75 µM ([2]; Well no.=7952) was 92.4% and the remaining activity at 3.75 µM ([2]; Well no.=8083) was 105%.
For `Cn1cnc2c(NC3CCCC3)ncnc21` [N6-Cyclopentyl-9-methyladenine], the remaining activity at 1.25 µM ([1]; Well no.=988) was 96.8% and the remaining activity at 3.75 µM ([2]; Well no.=988) was 99.1%.
With `OC[C@H]1O[C@@H](n2cnc3c(NC4CCCC4)ncnc32)[C@H](O)[C@@H]1O` [N6-Cyclopentyladenosine] the remaining activity at 1.25 µM ([1]; Well no.=330) was 85.8% and the remaining activity at 3.75 µM ([2]; Well no.=330) was 88.2%.
With `CCNc1ncnc2c1ncn2[C@@H]1O[C@H](CO)[C@@H](O)[C@H]1O` [N6-Ethyladenosine] the remaining activity at 1.25 µM ([1]; Well no.=7906) was 99.5%, the remaining activity at 1.25 µM ([1]; Well no.=8517) was 100% and the remaining activity at 3.75 µM ([2]; Well no.=7906) was 97.7%. For the same compound, the remaining activity at 3.75 µM ([2]; Well no.=8517) was 95.1%.
`CNc1ncnc2c1ncn2[C@@H]1O[C@H](CO)[C@@H](O)[C@H]1O` [N6-Methyladenosine] gave a remaining activity at 1.25 µM ([1]; Well no.=930) of 97.7%, a remaining activity at 1.25 µM ([1]; Well no.=8052) of 95.7% and a remaining activity at 3.75 µM ([2]; Well no.=930) of 96.9%. It also gave a remaining activity at 3.75 µM ([2]; Well no.=8052) of 96.2%.
Work on `OC[C@H]1O[C@@H](n2cnc3c(Nc4ccccc4)ncnc32)[C@H](O)[C@@H]1O` [N6-Phenyladenosine] yielded a remaining activity at 1.25 µM ([1]; Well no.=1501) of 97.5% and a remaining activity at 3.75 µM ([2]; Well no.=1501) of 100%.
Work on `CC(C)n1cnc2c(NCc3ccccc3)nc(NCCO)nc21` [N9-Isopropylolomoucine] yielded a remaining activity at 1.25 µM ([1]; Well no.=716) of 96.5% and a remaining activity at 3.75 µM ([2]; Well no.=716) of 98.5%.
With `CC(C)c1ccc(C(=O)N=C(N)N)cc1S(C)(=O)=O` [N''-[4-isopropyl-3-(methylsulfonyl)benzoyl]guanidine] the remaining activity at 1.25 µM ([1]; Well no.=5586) was 91.7% and the remaining activity at 3.75 µM ([2]; Well no.=5586) was 91.3%.
`CN(C)C(=O)N=NC(=O)N(C)C` [N,N,N',N'-Tetramethylazodicarboxamide] showed a remaining activity at 1.25 µM ([1]; Well no.=735) of 94.9% and a remaining activity at 3.75 µM ([2]; Well no.=735) of 98.5%.
Work on `CC(COc1ccc(/C=C/c2ccccc2)cc1)[N+](C)(C)C` (stereo not drawn) [N,N,N-trimethyl-1-(4-trans-stilbenoxy)-2-propylammonium iodide] yielded a remaining activity at 1.25 µM ([1]; Well no.=1531) of 98.1% and a remaining activity at 3.75 µM ([2]; Well no.=1531) of 99.7%.
